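These data come from cells grown in 96-well plates and exposed to compound for 48 hours at five concentrations. Definition used: TGI = concentration required for complete inhibition of growth.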
Experiments:
Test in all cases: NCI tumour cell line growth inhibition, 48 h
786-0 renal = test system: 786-0 renal
A498 renal = test system: A498 renal
A549 NSCLC = test system: A549 NSCLC
ACHN renal = test system: ACHN renal
BT-549 breast = test system: BT-549 breast
CAKI-1 renal = test system: CAKI-1 renal
CCRF-CEM leukemia = test system: CCRF-CEM leukemia
COLO 205 colon = test system: COLO 205 colon
DU-145 prostate = test system: DU-145 prostate
EKVX NSCLC = test system: EKVX NSCLC
HCC-2998 colon = test system: HCC-2998 colon
HCT-116 colon = test system: HCT-116 colon
HCT-15 colon = test system: HCT-15 colon
HL-60(TB) leukemia = test system: HL-60(TB) leukemia
HOP-62 NSCLC = test system: HOP-62 NSCLC
HOP-92 NSCLC = test system: HOP-92 NSCLC
HS 578T breast = test system: HS 578T breast
HT29 colon = test system: HT29 colon
IGROV1 ovarian = test system: IGROV1 ovarian
K-562 leukemia = test system: K-562 leukemia
KM12 colon = test system: KM12 colon
LOX IMVI melanoma = test system: LOX IMVI melanoma
M14 melanoma = test system: M14 melanoma
MALME-3M melanoma = test system: MALME-3M melanoma
MCF7 breast = test system: MCF7 breast
MDA-MB-435 = test system: MDA-MB-435
MDA-N = test system: MDA-N
MOLT-4 leukemia = test system: MOLT-4 leukemia
NCI-H23 lung = test system: NCI-H23 lung
NCI-H460 lung = test system: NCI-H460 lung
NCI-H522 lung = test system: NCI-H522 lung
NCI/ADR-RES ovarian = test system: NCI/ADR-RES ovarian
OVCAR-3 ovarian = test system: OVCAR-3 ovarian
OVCAR-4 ovarian = test system: OVCAR-4 ovarian
OVCAR-5 ovarian = test system: OVCAR-5 ovarian
OVCAR-8 ovarian = test system: OVCAR-8 ovarian
RPMI-8226 leukemia = test system: RPMI-8226 leukemia
RXF 393 renal = test system: RXF 393 renal
SF-268 CNS = test system: SF-268 CNS
SF-295 CNS = test system: SF-295 CNS
SF-539 CNS = test system: SF-539 CNS
SK-MEL-28 melanoma = test system: SK-MEL-28 melanoma
SK-MEL-5 melanoma = test system: SK-MEL-5 melanoma
SK-OV-3 ovarian = test system: SK-OV-3 ovarian
SN12C renal = test system: SN12C renal
SNB-19 CNS = test system: SNB-19 CNS
SNB-75 CNS = test system: SNB-75 CNS
SR leukemia = test system: SR leukemia
SW-620 colon = test system: SW-620 colon
TK-10 renal = test system: TK-10 renal
UACC-257 melanoma = test system: UACC-257 melanoma
UACC-62 melanoma = test system: UACC-62 melanoma
UO-31 renal = test system: UO-31 renal
MDA-MB-231 breast = test system: MDA-MB-231 breast
PC-3 prostate = test system: PC-3 prostate
SK-MEL-2 melanoma = test system: SK-MEL-2 melanoma
T-47D breast = test system: T-47D breast
U251 CNS = test system: U251 CNS

Q: What does the source list for `CCOC(=O)C1(C(=O)OCC)CN(CC)CN(c2ccccc2)C1`?
A: TGI (786-0 renal): 35.2 µM; TGI (A498 renal): > 100 µM; TGI (A549 NSCLC): 49.3 µM; TGI (ACHN renal): 35.8 µM; TGI (BT-549 breast): 86.6 µM; TGI (CAKI-1 renal): 31.8 µM; TGI (CCRF-CEM leukemia): 59.1 µM; TGI (COLO 205 colon): 34.8 µM; TGI (DU-145 prostate): 91.7 µM; TGI (EKVX NSCLC): 34 µM; TGI (HCC-2998 colon): 28.9 µM; TGI (HCT-116 colon): > 100 µM; TGI (HCT-15 colon): 39 µM; TGI (HL-60(TB) leukemia): 50.1 µM; TGI (HOP-62 NSCLC): 40.4 µM; TGI (HOP-92 NSCLC): 33.3 µM; TGI (HS 578T breast): > 100 µM; TGI (HT29 colon): 37.8 µM; TGI (IGROV1 ovarian): 39.8 µM; TGI (K-562 leukemia): > 100 µM; TGI (KM12 colon): > 100 µM; TGI (LOX IMVI melanoma): > 100 µM; TGI (M14 melanoma): 39.1 µM; TGI (MALME-3M melanoma): 69.2 µM; TGI (MCF7 breast): 35.1 µM; TGI (MDA-MB-435): 37.3 µM; TGI (MDA-N): 87.9 µM; TGI (MOLT-4 leukemia): 40.4 µM; TGI (NCI-H23 lung): 39 µM; TGI (NCI-H460 lung): > 100 µM; TGI (NCI-H522 lung): 56.1 µM; TGI (NCI/ADR-RES ovarian): > 100 µM; TGI (OVCAR-3 ovarian): 33.5 µM; TGI (OVCAR-4 ovarian): 49.1 µM; TGI (OVCAR-5 ovarian): 34.9 µM; TGI (OVCAR-8 ovarian): 47.4 µM; TGI (RPMI-8226 leukemia): 45 µM; TGI (RXF 393 renal): 31.7 µM; TGI (SF-268 CNS): > 100 µM; TGI (SF-295 CNS): > 100 µM; TGI (SF-539 CNS): 41.2 µM; TGI (SK-MEL-28 melanoma): 38.8 µM; TGI (SK-MEL-5 melanoma): > 100 µM; TGI (SK-OV-3 ovarian): > 100 µM; TGI (SN12C renal): > 100 µM; TGI (SNB-19 CNS): > 100 µM; TGI (SNB-75 CNS): 39.3 µM; TGI (SR leukemia): 47.7 µM; TGI (SW-620 colon): > 100 µM; TGI (TK-10 renal): 33.1 µM; TGI (UACC-257 melanoma): 31.1 µM; TGI (UACC-62 melanoma): 68.5 µM; TGI (UO-31 renal): 46.6 µM

Q: Which results are given for `O=C1c2cc3c(cc2CC12Cc1cc4c(cc1C2=O)CCC4)CCCC3` (stereo unspecified)?
A: TGI (786-0 renal): > 100 µM; TGI (A498 renal): > 100 µM; TGI (A549 NSCLC): > 100 µM; TGI (ACHN renal): > 100 µM; TGI (CAKI-1 renal): > 100 µM; TGI (CCRF-CEM leukemia): > 100 µM; TGI (DU-145 prostate): > 100 µM; TGI (EKVX NSCLC): > 100 µM; TGI (HCC-2998 colon): > 100 µM; TGI (HCT-116 colon): > 100 µM; TGI (HCT-15 colon): > 100 µM; TGI (HL-60(TB) leukemia): > 100 µM; TGI (HOP-62 NSCLC): > 100 µM; TGI (HOP-92 NSCLC): > 100 µM; TGI (HS 578T breast): > 100 µM; TGI (HT29 colon): > 100 µM; TGI (IGROV1 ovarian): > 100 µM; TGI (K-562 leukemia): > 100 µM; TGI (LOX IMVI melanoma): > 100 µM; TGI (M14 melanoma): > 100 µM; TGI (MALME-3M melanoma): > 100 µM; TGI (MCF7 breast): > 100 µM; TGI (MDA-MB-231 breast): > 100 µM; TGI (MDA-MB-435): > 100 µM; TGI (MDA-N): > 100 µM; TGI (MOLT-4 leukemia): > 100 µM; TGI (NCI-H23 lung): > 100 µM; TGI (NCI-H460 lung): > 100 µM; TGI (NCI-H522 lung): > 100 µM; TGI (NCI/ADR-RES ovarian): > 100 µM; TGI (OVCAR-3 ovarian): > 100 µM; TGI (OVCAR-4 ovarian): > 100 µM; TGI (OVCAR-5 ovarian): > 100 µM; TGI (OVCAR-8 ovarian): > 100 µM; TGI (PC-3 prostate): > 100 µM; TGI (RPMI-8226 leukemia): > 100 µM; TGI (RXF 393 renal): > 100 µM; TGI (SF-268 CNS): > 100 µM; TGI (SF-295 CNS): > 100 µM; TGI (SF-539 CNS): > 100 µM; TGI (SK-MEL-2 melanoma): > 100 µM; TGI (SK-MEL-28 melanoma): > 100 µM; TGI (SK-MEL-5 melanoma): > 100 µM; TGI (SK-OV-3 ovarian): > 100 µM; TGI (SNB-19 CNS): > 100 µM; TGI (SNB-75 CNS): > 100 µM; TGI (SR leukemia): > 100 µM; TGI (SW-620 colon): > 100 µM; TGI (T-47D breast): > 100 µM; TGI (TK-10 renal): > 100 µM; TGI (U251 CNS): > 100 µM; TGI (UACC-257 melanoma): > 100 µM; TGI (UO-31 renal): > 100 µM
